The values that follow come from patent US8388936B2, “In vivo mitochondrial labeling using positively-charged nitroxide enhanced and gadolinium chelate enhanced magnetic resonance imaging” (MCW Research Foundation, Inc., priority 2008, dated 2013).

One data set relates to MCF7 cells. In words: MTT cell viability assay. The class given is cell-based. To be noted: MCF7, 1-30 uM, 48 h. As for the experimental part: (§1) Cell Culture. MCF7, MDA-MB-231 and MCF10-A cells were obtained from the American Type Culture Collection (ATCC) and cultured at 37° C. in humidified 95% air/5% CO2. MCF7 cells were maintained in MEM-alpha medium containing 10% FBS, L-glutamine (4 mM), penicillin (100 μg/ml), streptomycin (100 μg/ml), non-essential amino acids and sodium pyruvate. MDA-MB-23 were grown in Dulbecco's Modified Eagle's medium (DMEM) containing 10% FBS, L-glutamine (4 mM), penicillin (100 μg/ml), and streptomycin (100 μg/ml). MCF10-A cells were maintained in F-12 media supplemented with 20% FHS, hydrocortisone, cholera toxin, penicillin, streptomycin, and endothelial cell growth factor (ECGF). Typically, the day of the treatment, various concentrations of the nitroxides were added to the cells directly in the media.
(§2) The MTT assay (Sigma-Aldrich, Milwaukee, Wis.) was used to measure cell survival using quantitative colorimetry (λ=570 nm). This assay is based on the capacity of mitochondrial dehydrogenases to reduce MTT to form the insoluble formazan product. Cells were plated in 12-well plates and treated at pre-confluency with Mito-CP and CP (0-30 μM) in their respective media for 48 h. The culture media was removed after treatment, washed gently with DPBS and MTT (5 mg/ml in media) was added to each well, following incubation of the plates for 1 h at 37° C. The MTT solution was removed and the formazan product in each well was dissolved with dimethyl sulfoxide (DMSO). The optical density of each well was measured using an Agilent 8453 UV-Vis spectrometer at 570 nm.
(§3) MCF7, MDA-MB-231 and non-tumorigenic MCF10-A were grown to pre-confluency and treated with either Mito-CP or parent compound CP (1-30 uM) for 48 h and cell viability was measured using the MTT assay.
Background: Tetrazolium assays rely on reduction of a dye to a coloured formazan, in cell work by metabolically active cells.

Another data set deals with MDA-MB-231 cells. In words: MTT cell viability assay. The class given is cell-based. The note with it: MDA-MB-231, 1-30 uM, 48 h. The procedure:
as §1, §2, §3

The subject of data set [1] is non-tumorigenic MCF10-A breast epithelial cells. In words: MTT cell viability assay. The class given is cell-based. To be noted: normal MCF10-A, 1-30 uM, 48 h. The procedure: as §1, §2, §3
Data set [2] in a line: T1 (longitudinal) relaxivity in buffered saline by spin echo inversion recovery MRI. In kind it is physicochemical. The note with it: buffered saline (DPBS). The procedure:
T1 Relaxivity at 1.5 Tesla. The longitudinal relaxivities of CP and Mito-CP were determined using a LX 1.5 T GE Scanner (GE, Waukesha, Wis.) using an 8-channel head rf coil. Solutions of CP and Mito-CP were diluted with Dulbecco's Phosphate Buffered Saline (DPBS) to the following concentrations: 5.0 μM, 10.0 μM, 20.0 μM, 50.0 μM, 100.0 μM, 200.0 μM, 300.0 μM, 500.0 μM, 700.0 μM, 1.0 mM, 2.0 mM, 5.0 mM, 10.0 mM, and 20.0 mM. Longitudinal relaxation times (T1) for each solution and relaxivities (R1) for CP and Mito-CP were calculated using images from a standard spin echo sequence (TE=14 msec, TR=10 sec) at various inversion times (TI=50, 125 msec incrementing by 125 msec to 3500 msec and 4000 msec).
T1 Relaxivity at 3.0 Tesla. The longitudinal relaxivities of CP and Mito-CP were determined using a Signa 3.0 T GE Scanner (GE, Waukesha, Wis.) using a custom rf quadrature coil. Solutions of CP and Mito-CP were diluted with Dulbecco's Phosphate Buffered Saline (DPBS) to the following concentrations: 1.0 μM, 10.0 μM, 100.0 μM, 1.0 mM, 10.0 mM, and 20.0 mM. Longitudinal relaxation times (T1) for each solution and relaxivities (R1) for CP and Mito-CP were calculated using images from a standard spin echo sequence (TE=9 msec, TR=15 sec) at various inversion times (TI=100 msec incrementing by 100 msec to 4000 msec and 50, 150, 1050, 1150 msec).
T1 Relaxivity at 9.4 Tesla. Both solutions were diluted with Dulbecco's Phosphate Buffered Saline (DPBS) to the following concentrations: […], 1.0 mM, 10.0 mM, and 20.0 mM. Longitudinal relaxation times (T1) for each solution and relaxivities (R1) for CP and Mito-CP were calculated using a standard spin echo sequence (TE=9 msec, TR=15,000 msec) at various inversion times (TI=100 msec incrementing by 100 msec to 4000 msec and 50, 150, 1050, 1150 msec).
The longitudinal relaxivities of other nitroxides have been approximate […]. In order to assess the longitudinal relaxivity of CP and Mito-CP, concentrations were prepared with the expectation of this relaxivity. Two separate initial solutions of CP and Mito-CP were prepared. Longitudinal relaxivities were determined for both CP and Mito-CP at three field strengths. Relaxivities were obtained from non-linear fits of standard spin echo inversion recovery images calculated using Matlab.

Data set [3] deals with isolated rabbit heart mitochondria. In words: In vitro localization in isolated mitochondria, MRI T1 analysis. The note with it: for T1 / enhancement of treated mitochondria (uptake): 10 uM, 37° C. 10 minutes, 3.0 T, compared to mitochondria alone. The procedure: The experiment was carried out on a Signa 3.0 T GE scanner (GE, Waukesha, Wis.) using a custom quadrature rf coil with a G10 fiberglass vial rack. Rabbit heart mitochondria were isolated. For verification of MR detectable mitochondrial accumulation of Mito-CP, isolated rabbit mitochondria were separated into […] eppendorf tubes each containing 40 μL of 15 mg/ml mitochondria. Six eppendorf tubes were prepared as indicated in Table 1 below (1-6), and three additional eppendorf tubes were prepared from the supernatant of tubes 4-6 (4b-6b): Note that succinate is needed to activate the mitochondrial respiratory chain, necessary for normal function. All tubes were incubated at 37° C. for 10 minutes. Immediately following incubation, all tubes were centrifuged at 1,000×g for 4 minutes at 4° C. The supernatant was then transferred into another eppendorf tube. The mitochondria in tubes 4-6 were re-suspended with the addition of […] of DPBS and allowed to settle naturally. […] To determine the specificity that Mito-CP has toward mitochondria, the compound carboxy-proxyl (CP) was used for comparison. CP is a 5-member nitroxide ring, depicted in FIG. 1, without the ten chain linking carbons and the triphenylphosphonium. […] These properties make CP an ideal control for specificity of Mito-CP toward mitochondria.

The conditions of data set [4]: for EPR signal of blood following treatment with ferricyanide: rat blood from catheter after dynamic EPR spectra.
The conditions of data set [5]: cited from earlier work.

For the molecule `CC1(C)CC(C(=O)O)C(C)(C)N1[O]` (stereo not shown) [CP, carboxy-proxyl, reference compound], the “induction of cancer cell apoptosis / cell viability (MTT)” value with MCF7 cells and in the data set on MDA-MB-231 cells was “did not” each time. In addition, the “induction of apoptosis / cell viability (MTT)” value in data set [1] is reported as “no influence inducing apoptosis”. Besides, the “longitudinal relaxivity R1” value in data set [2] (3.0 T) was 0.1546 ± 0.00567 mM⁻¹ s⁻¹. Besides, the “T1 / enhancement of treated mitochondria (uptake)” value in data set [3] is “did not enhance considerably”. For the same molecule, the “EPR signal of blood following treatment with ferricyanide” value in data set [4] is recorded as “not back to its initial level”. Further, the “permeability to lipid membranes” value in data set [5] is recorded as “impermeable to lipid membranes”.
On to “(11-(3-carboxy-2,2,5,5-tetramethyl-1-pyrrolidinyloxy)-undecyl)-triphenylphosphonium bromide [Mito-CP]”, for which the “induction of cancer cell apoptosis / cell viability (MTT)” value with MCF7 cells and in the data set on MDA-MB-231 cells was “induced cancer cell apoptosis” each time. Moreover, the “induction of apoptosis / cell viability (MTT)” value in data set [1] is reported as “no influence inducing apoptosis”. Also, the “longitudinal relaxivity R1” value in data set [2] (1.5 T) stood at 0.1643 ± 0.01314 mM⁻¹ s⁻¹; in data set [2] (3.0 T), 0.2322 ± 0.0151 mM⁻¹ s⁻¹; in data set [2] (9.4 T) it was 0.2083 ± 0.0431 mM⁻¹ s⁻¹. The “increase in concentration within the mitochondria compared to the incubating solution” value in data set [3] (10 uM incubating solution) is listed as at least 140 fold. The “estimated mitochondrial associated tissue concentration” value in data set [3] (10 uM incubating solution, calculated from relaxivity and T1) was 0.143 mM. The “T1 / enhancement of treated mitochondria (uptake)” value in data set [3] is “shortened T1, indicating uptake”. Also, in data set [4], the “EPR signal of blood following treatment with ferricyanide” value is reported as “signal was recovered”. Besides, the “time to elimination/reduction from the blood” value in data set [4] (rat, following bolus injection) is at most 30 min. Besides, the “in vivo half-life in blood” value in data set [4] (single rat, tail-vein bolus, monoexponential fit after peak) is “approximately 2 minutes”.
